The test system of one assay is Balb/C female mice. The assay is described as follows: Hematopoietic recovery after cyclophosphamide in mice (spleen weight, blood cell counts). The format is in vivo, mouse.
The test system of the next assay is bone marrow cells. The assay is described as follows: Colony forming units in bone marrow of mice recovering from cyclophosphamide. The format is in vivo, mouse. On the procedure:
Seventy-two Balb/C female mice weighing approximately 20-grams each were given cyclophosphamide (275 mg/kg) by intraperitoneal (i.p.) injection. Twenty-four hours later and each day thereafter, mice received a 0.4 ml i.p. injection of either physiological saline (control) or palmitoylguanosine (2.5 μmoles/mouse/day in 0.2% Tween 80). On days 3, 5, 7, and 10 following CP administration 6 animals from each group were sacrificed by cervical dislocation, and the left femur of each animal obtained by sterile means. The bone marrow cells were then flushed from the femurs with McCoy's 5a Modified medium using a 23-gauge needle. Cells from femurs in the same group were pooled, dispersed by briefly vortexing, and counted using a hemocytometer. Cell suspensions were added to McCoy's Modified 5a medium containing 15% bovine calf serum, 1× Kanamycin, 0.3% agar, and 3% endotoxin-stimulated serum. […] Each group was plated in quintuplicate. After 7 days in culture (at 37° in 5% CO2 and humidified air) aggregates of 50 cells or more (“colonies”) were counted using a dissecting microscope at 25×.

In assay [1] the test system is IL-3-dependent bone marrow cells. Put plainly: Apoptosis of IL-3-dependent bone marrow cells deprived of IL-3 (trypan blue exclusion). The format is cell-based, mouse. The settings on record: 10 micrograms per milliliter.
Protocol: Bone marrow cells were obtained by flushing the femurs of three male B6D2F1 mice. The cells were plated at 5.0×10^5/ml in MEM plus 10% fetal calf serum and 25 Units/ml of recombinant IL-3 for 24-48 hours. Non-adherent cells were then separated from adherent cells and maintained for an additional twelve days. IL-3 washed from cells, and cells were plated in MEM plus 10% fetal calf serum in the presence or absence of IL-3 and with or without the addition of palmitoyldeoxyguanosine (10 micrograms per milliliter) or deoxyguanosine (10 micrograms per milliliter). Cells were counted using the trypan blue exclusion method, and the percent of dead cells (trypan blue positive) was determined at 24, 40, 60 and 84 hours following the wash.
The test system of a further assay is female Balb/C mice. Put plainly: Survival after bacterial endotoxin (salmonella typhimurium LPS). The format is in vivo, mouse. The settings on record: 21-day observation; LPS 100 μg (5 mg/kg); 25 mg/kg i.p. daily 3 days prior. The procedure:
In an experiment to test the effect of N^2,3′,5′-tripalmitoyldeoxyguanosine (PdG) on animals challenged by endotoxin, 42 female Balb/C mice were divided into three groups of 14 animals each. Each group was given a single 100 μg dose (5 mg/kg) of salmonella typhimurium LPS. Two of the groups were treated once per day for three days prior to receiving the LPS by intraperitoneal injection with either 25 mg/kg PdG or with vehicle alone. The third group received no pretreatment. Survival of the animals was monitored for 21 days subsequent to the LPS dose.

The test system of a further assay is interleukin-6. Put plainly: LPS-induced elevation of serum interleukin-6. The format is in vivo, mouse. The settings on record: PdG 25 mg/kg i.p. The procedure:
Sixty-three female Balb/C mice were randomly assigned to one of three groups. The animals in one group received a single daily dose of N^2,3′,5′-tripalmitoyldeoxyguanosine (PdG) (25 mg/kg, i.p.), while a second group received a single daily dose of the PdG treatment vehicle (control). The third group was left untreated. On the fourth day 100 μg salmonella typhimurium LPS was administered to all three groups. Serum samples were taken just prior to LPS administration (t=0) and at two, four, six, eight, ten, twelve, sixteen, and twenty hours after LPS administration. The samples were then frozen until the time of assay. Serum levels of TNF-alpha, and IFN-gamma were measured by ELISA.
PdG also attenuated LPS-induced elevation of serum interleukin-1-alpha and interleukin-6.

The test system of a further assay is hematopoietic stem cells. Put plainly: Stem cell mobilization. The format is in vivo, mouse.

This is an account of results in US7307166B1, “Oxpurine nucleosides and their congeners, and acyl, derivatives thereof, for improvement of hematopoiesis” (Wellstat Therapeutics Corporation, priority 1987, dated 2007).

As to `CCCCCCCCCCCCCCCC(=O)OC[C@H]1O[C@@H](n2cnc3c(=O)[nH]c(N)nc32)[C@H](O)[C@@H]1O`, the spleen weight result in the assay on Balb/C female mice (Ex 38: day 7 after CP, guanosine 5, acyl derivatives 2.5 μmoles/mouse/day in 0.2% Tween 80 i.p. 6 days, Tween 80 0.2%) is given as “significantly larger spleens”. Further, the total neutrophils result with Balb/C female mice (Ex 41: day 7 after CP, treatment on only days 1 and 2, vs saline or Tween 80) was “significant increase”. Also, the platelet number result in the assay on Balb/C female mice (Ex 47: day 10 after CP, 2.5 μmoles/mouse/day) is “significantly greater”. Also, the “colony-forming units per femur” value with bone marrow cells (Day 3 after CP, 2.5 μmoles/mouse/day in 0.2% Tween 80 i.p.) amounted to 645 ± 26; in the assay on bone marrow cells (Day 5 after CP, 2.5 μmoles/mouse/day), 2327 ± 121; with bone marrow cells (Day 7 after CP, 2.5 μmoles/mouse/day), 1328 ± 140; in the assay with bone marrow cells (Day 10 after CP, 2.5 μmoles/mouse/day), 647 ± 25.
As for `CCCCCCCCCCCCCCCC(=O)Nc1nc2c(ncn2[C@H]2C[C@H](OC(=O)CCCCCCCCCCCCCCC)[C@@H](COC(=O)CCCCCCCCCCCCCCC)O2)c(=O)[nH]1` [PdG, 3′,5′-O-N^2-tripalmitoyl-2′-deoxyguanosine], the “% Dead Cells” value came out at 18.0 ± 3.0 % in assay [1] (40 hr after IL-3 wash), 16.0 ± 1.5 % in assay [1] (60 hr after IL-3 wash) and 15.3 ± 5.5 % in assay [1] (84 hr after IL-3 wash). Besides, the survival result in the assay on female Balb/C mice was “All”. Moreover, in the assay on interleukin-6, the “LPS-induced elevation of serum interleukin-6” value is reported as “attenuated”. Besides, in the assay with hematopoietic stem cells (PdG alone 25 mg/kg), the “mobilization of stem cells” value is on record as “can induce the mobilization”. In addition, the “response to cyclophosphamide (stem cell mobilization) with PdG” value in the assay on hematopoietic stem cells (PdG with cyclophosphamide) is “seven to eight-fold greater”. In the assay with hematopoietic stem cells (with and without cyclophosphamide co-treatment), the “mobilizing stem cells in intact and splenectomized mice” value is “equally effective”.
